According to the supplement of paper PMC9512659:

Experiments:
[1] = system: Mycobacterium tuberculosis Erdman (pMV306hsp+LuxG13); experiment: GRinf, normalised growth-rate inhibition at infinite dose (GR value (unitless, negative = killing)); higher = less potent
Method: (§1)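 DiaMOND pairwise dose responses of an equipotent two-drug mixture (1.5-fold, 10-dose series) against autoluminescent M. tuberculosis Erdman in 384-well plates. Growth inhibition was read by OD600 (luminescence for dormancy) in seven media at a constant and a terminal time point; metrics are means of at least biological duplicates. Einf and AUC25 higher = more potent; GRinf lower = more potent; log2FIC negative = synergy.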

[2] = system: Mycobacterium tuberculosis Erdman (pMV306hsp+LuxG13); experiment: log2 fractional inhibitory concentration at 50% inhibition (log2 FIC); higher = more antagonistic
Method: as §1

[3] = system: Mycobacterium tuberculosis Erdman (pMV306hsp+LuxG13); experiment: log2 fractional inhibitory concentration at 90% inhibition (log2 FIC); higher = more antagonistic
Method: as §1

[4] = system: Mycobacterium tuberculosis Erdman (pMV306hsp+LuxG13); experiment: AUC25, normalised area under the dose-response curve up to IC25 (normalised AUC (unitless)); higher = more potent
Method: as §1

[5] = system: Mycobacterium tuberculosis Erdman (pMV306hsp+LuxG13); experiment: Einf, effect of the drug pair at infinite dose (maximum growth inhibition) (fraction inhibition (0-1)); higher = more potent; extreme values may be limits of the assay
Method: as §1

CC[C@@H](CO)NCCN[C@@H](CC)CO [ethambutol] + CC(C)=CCC/C(C)=C/CNCCNC1C2CC3CC(C2)CC1C3 [SQ109]
Details	AUC25, [4]	Einf, [5]	GRinf, [1]	log2 fractional inhibitory concentration, [2]	log2 fractional inhibitory concentration, [3]
growth medium: butyrate 5 mM, time point: constant time point	0.0766	0.886	0.0457	0.614	–
growth medium: butyrate 5 mM, time point: terminal time point	0.0668	0.937	0.0593	0.497	0.586
growth medium: cholesterol 0.05 mM, time point: constant time point	0.0769	0.732	-0.435	0.488	–
growth medium: cholesterol 0.2 mM (cholesterol-high), time point: constant time point	0.0635	1	-0.949	0.679	0.489
growth medium: cholesterol 0.2 mM (cholesterol-high), time point: terminal time point	0.0641	1	-0.86	0.546	0.354
growth medium: standard 7H9 OADC glycerol, time point: constant = terminal time point (4.2 d)	0.0512	0.843	0.238	0.0946	–
growth medium: valerate 0.1%, time point: constant time point	0.0745	0.902	0.155	0.751	0.158
growth medium: valerate 0.1%, time point: terminal time point	0.0778	0.9	0.175	0.656	0.34

growth medium: hypoxic dormancy (butyrate + nitrate), then recovery
Details	AUC25, [4]	Einf, [5]	GRinf, [1]	log2 fractional inhibitory concentration, [2]	log2 fractional inhibitory concentration, [3]
time point: constant time point	0.0928	0.988	-0.333	-0.601	-0.745
time point: terminal time point	0.0578	0.96	0.144	0.71	–

CC[C@@H](CO)NCCN[C@@H](CC)CO [ethambutol] + CC(=O)NC[C@H]1CN(c2ccc(N3CCSCC3)c(F)c2)C(=O)O1 [sutezolid]
Details	AUC25, [4]	Einf, [5]	GRinf, [1]	log2 fractional inhibitory concentration, [2]	log2 fractional inhibitory concentration, [3]
growth medium: acidic pH 5.7, glycerol, time point: constant time point	0.122	0.837	-0.0739	-0.476	–
growth medium: acidic pH 5.7, glycerol, time point: terminal time point	0.0981	0.989	-0.214	0.638	0.0843
growth medium: butyrate 5 mM, time point: constant time point	0.0681	0.911	0.0455	0.936	–
growth medium: butyrate 5 mM, time point: terminal time point	0.0502	0.954	0.0337	0.703	-0.108
growth medium: cholesterol 0.05 mM, time point: constant time point	0.121	1	-1	0.779	-0.482
growth medium: cholesterol 0.05 mM, time point: terminal time point	0.104	1	-0.945	-0.083	-1.28
growth medium: cholesterol 0.2 mM (cholesterol-high), time point: constant time point	0.0903	1	-1	-0.151	–
growth medium: cholesterol 0.2 mM (cholesterol-high), time point: terminal time point	0.109	1	-0.852	-0.578	-0.0598
growth medium: standard 7H9 OADC glycerol, time point: constant = terminal time point (4.2 d)	0.0717	0.982	-0.118	0.607	0.432
growth medium: valerate 0.1%, time point: constant time point	0.132	0.931	-1	-0.351	–
growth medium: valerate 0.1%, time point: terminal time point	0.0852	0.975	-0.02	0.139	0.287

growth medium: hypoxic dormancy (butyrate + nitrate), then recovery
Details	AUC25, [4]	Einf, [5]	GRinf, [1]	log2 fractional inhibitory concentration, [2]	log2 fractional inhibitory concentration, [3]
time point: constant time point	0.0614	0.989	-0.104	0.45	–
time point: terminal time point	0.0966	0.979	-0.187	1.4	0.341

NNC(=O)c1ccncc1 [isoniazid] + CC(=O)NC[C@H]1CN(c2ccc(N3CCSCC3)c(F)c2)C(=O)O1 [sutezolid]
Details	AUC25, [4]	Einf, [5]	GRinf, [1]	log2 fractional inhibitory concentration, [2]	log2 fractional inhibitory concentration, [3]
growth medium: acidic pH 5.7, glycerol, time point: constant time point	0.0914	0.846	-0.123	0.123	–
growth medium: acidic pH 5.7, glycerol, time point: terminal time point	0.0816	0.972	-0.174	0.103	-0.00954
growth medium: butyrate 5 mM, time point: constant time point	0.0778	0.901	0.0944	0.357	–
growth medium: butyrate 5 mM, time point: terminal time point	0.0468	0.944	0.104	0.264	0.0935
growth medium: cholesterol 0.05 mM, time point: constant time point	0.026	0.988	-0.536	0.559	-0.209
growth medium: cholesterol 0.05 mM, time point: terminal time point	0.113	1	-1	0.493	0.0381
growth medium: cholesterol 0.2 mM (cholesterol-high), time point: constant time point	0.0844	0.994	-0.83	0.0991	0.448
growth medium: cholesterol 0.2 mM (cholesterol-high), time point: terminal time point	0.119	1	-0.942	-0.302	0.592
growth medium: standard 7H9 OADC glycerol, time point: constant = terminal time point (4.2 d)	0.0428	0.956	0.0933	-0.00832	-0.586
growth medium: valerate 0.1%, time point: constant time point	0.0744	0.872	-0.342	1.2	–
growth medium: valerate 0.1%, time point: terminal time point	0.0761	0.982	-0.0769	0.633	0.724

growth medium: hypoxic dormancy (butyrate + nitrate), then recovery
Details	AUC25, [4]	Einf, [5]	GRinf, [1]	log2 fractional inhibitory concentration, [2]	log2 fractional inhibitory concentration, [3]
time point: constant time point	0.0513	0.987	0.3	0.243	-0.281
time point: terminal time point	0.0273	0.958	0.448	0.741	-0.485

CO[C@H]1/C=C/O[C@@]2(C)Oc3c(C)c(O)c4c(O)c(c(/C=N/N5CCN(C)CC5)c(O)c4c3C2=O)NC(=O)/C(C)=C\C=C\[C@H](C)[C@H](O)[C@@H](C)[C@@H](O)[C@@H](C)[C@H](OC(C)=O)[C@@H]1C [rifampicin] + CC(=O)NC[C@H]1CN(c2ccc(N3CCSCC3)c(F)c2)C(=O)O1 [sutezolid]
Details	AUC25, [4]	Einf, [5]	GRinf, [1]	log2 fractional inhibitory concentration, [2]	log2 fractional inhibitory concentration, [3]
growth medium: acidic pH 5.7, glycerol, time point: constant time point	0.0817	0.853	-0.111	0.233	–
growth medium: acidic pH 5.7, glycerol, time point: terminal time point	0.076	0.977	-0.205	0.315	-0.595
growth medium: butyrate 5 mM, time point: constant time point	0.0989	0.911	0.0134	-0.239	–
growth medium: butyrate 5 mM, time point: terminal time point	0.0783	0.953	-0.0141	-0.147	-0.298
growth medium: cholesterol 0.2 mM (cholesterol-high), time point: constant time point	0.0474	0.988	-0.878	-0.0927	-0.588
growth medium: cholesterol 0.2 mM (cholesterol-high), time point: terminal time point	0.0807	1	-0.728	-0.136	-0.315
growth medium: standard 7H9 OADC glycerol, time point: constant = terminal time point (4.2 d)	0.0433	0.969	-0.0246	-0.167	-0.846
growth medium: valerate 0.1%, time point: constant time point	0.11	0.962	0.0594	1.45	–
growth medium: valerate 0.1%, time point: terminal time point	0.0701	0.979	-0.0207	0.427	0.302

growth medium: hypoxic dormancy (butyrate + nitrate), then recovery
Details	AUC25, [4]	Einf, [5]	GRinf, [1]	log2 fractional inhibitory concentration, [2]	log2 fractional inhibitory concentration, [3]
time point: constant time point	0.0508	0.978	0.206	-0.575	-0.578
time point: terminal time point	0.06	0.971	0.237	0.255	-0.678
